Measured values published in patent US8350097B2, “Therapeutic compounds” (priority 2007, dated 2013).
Read-outs that look alike come from different tables or passages of the source.

What was measured:
Male descented ferrets = experiment: Anti-emetic activity in ferrets (morphine sulfate-induced emesis); assay type: in vivo, ferret; settings: 6 ferrets, 15 min IV infusion at 1 mg/kg/min then 0.5 mg/kg morphine sulfate s.c., 45 min observation
Description: Male descented ferrets weighing 1.0-1.5 kg with vascular access ports in the jugular vein were housed on a 12/12-hour light/dark cycle under controlled temperature, with food and water provided ad libitum. On each study day, food was presented to ferrets one hour prior to dosing. Immediately prior to dosing, food and water were removed. A 1% Compound 1 formulation, prepared as described in Example 2 and formulated in accordance with Example 5, or […] was administered by IV infusion to the ferrets; see Wynn R L et al, 1993, Eur J Pharmacol 241, 42 re […] administration in ferrets. After administration of Compound 1 or […], animals were placed in clean, transparent cages (with lids) and left unrestrained for a 45-min observation period by an observer blinded to the specific treatment administered.
Episodes of retching and/or vomiting were considered separate episodes when the interval between retches and/or vomits exceeded 5 sec.
After termination of the infusion, 0.5 mg/kg morphine sulfate was administered subcutaneously and the ferrets were monitored for 45 min as described above. Six additional ferrets were administered subcutaneously 0.5 mg/kg morphine sulfate only.

[1] = Pharmacokinetic study, IV infusion in domestic pigs; assay type: in vivo
Description: A 0.5% Compound 1 formulation, prepared as described in Example 2 and formulated in accordance with Example 6, was administered to 6 pigs via a 20-min intravenous (IV) infusion at 0.6 mg/kg/min (12 mg/kg total dose).

pig = experiment: Test B. Anesthetized Pig Model (hemodynamic profile); assay type: in vivo; settings: equi-anesthetic doses (3 mg/kg vs propofol 6 mg/kg), FIGS. 1 and 2
Description: The hemodynamic profile of a compound of the invention can be determined using standard pharmacological models which are well known to the art. The hemodynamic and anesthetic profiles of a compound of the invention were evaluated simultaneously using an anesthetized pig model (as described in Test B below). In this assay, the hemodynamic profile of a compound of the invention was compared to that of propofol at equi-anesthetic doses.
Test B. Anesthetized Pig Model
The anesthetic induction will be performed using a modification of a technique described by Ko et al (Ko et al., Lab Anim Sci 1993; 43: 476-80) for swine (Telazol, xylazine and ketamine given as an intramuscular injection). […]
A pilot dose-finding study will be performed to establish an appropriate infusion dose for each agent. […] Blood samples (1 mL each) may be collected at pre-dose and at 2, 4, 6, 8, 10, 12, 15, 20, 22, […], 25, 35, 50, 65 and 80 minutes after the start of the first infusion for pharmacokinetic purposes; EEG will be recorded continuously as the primary pharmacodynamic endpoint. […]
The EEG signal will be fed to a BIS analyzer (Aspect Medical) which provides continuous output of processed EEG data. The output consists of a “BIS” number calculated by a proprietary algorithm that ranges between 100 (fully conscious) and 0 (isoelectric) and indicates brain activity. […]

Beagle dogs = settings: dog, in vivo
Male Sprague Dawley rats = experiment: Test A. Loss of Righting Reflex Assay; assay type: in vivo, rat
Description: The ability of a compound of the invention to produce a sedative or hypnotic effect can be determined using standard pharmacological models which are well known to the art.
Test A. Loss of Righting Reflex Assay
Male Sprague Dawley rats were restrained in a holder and injection test compounds were injected in the tail vein (based on mg test compound/kg body weight). Following administration, the rats were placed in dorsal recumbent position on a heating blanket. The time to onset for the loss of the Righting Reflex (RR-ability of rat to right itself) was recorded, as was the duration of the loss of the RR.

## CC[C@@H](C)c1cccc(C(C)C)c1O [Compound 1, (R)-(−)-2-sec-butyl-6-isopropylphenol]
Male descented ferrets
  retches in the presence of morphine: 47
  vomits in the presence of morphine: 1
[1]
  metabolic pathway: glucuronidation in the 1-position with the 4-position being subject to hydroxylation followed by glucuronide and sulfate conjugation
[1]; IV infusion
  Clearance: exceeded estimated hepatic blood flow
pig
  hemodynamic profile vs. propofol: improved hemodynamic profile
Beagle dogs
  anesthetic depth by Cumulative sedation scores: approximately equipotent anesthetic depth
Beagle dogs; iv
  duration of anesthesia (sleep time) compared with propofol: similar
  effect on BIS compared with propofol: greater effect on BIS at doses of at least 15 mg/kg
Beagle dogs; iv, 5 mg/kg
  duration of anesthesia (sleep time): 23 min
Beagle dogs; iv, 10 mg/kg
  duration of anesthesia (sleep time): 33 min
Beagle dogs; iv, 15 mg/kg
  duration of anesthesia (sleep time): 40 min
Beagle dogs; iv, 30 mg/kg
  duration of anesthesia (sleep time): 71 min
Male Sprague Dawley rats; 7 mg/kg bolus in tail vein, 1% formulation
  duration of anesthesia (loss of the Righting Reflex): 14.9 min
Male Sprague Dawley rats; Test A
  hypnotic potency compared to propofol: more potent than propofol
